# In patent publication US20090105349A1, “ANDROGEN MODULATORS” (WARNER-LAMBERT COMPANY LLC, priority 2004, published 2009):
# Positions count from the first letter of the chain named. Where two headings read alike, the source gives them in different places.
# What was measured:
# [1] = test system: male Syrian hamsters (ear sebaceous glands, sebum); test: Animal model for inhibition of sebum production (hamster ear); type: in vivo, Syrian hamster; settings: 3 % w/v, 4 weeks; for % CE Reduction / % WE Reduction: Vehicle #1 (polyethylene glycol/transcutol/ethanol 20/20/60), topical twice daily, vs vehicle control; for % WE & CE Reduction: Vehicle #1, topical twice daily, sum of WE and CE
# Experimental: Arch. Derm. […] This model uses male Syrian hamsters, whose ears contain sebaceous glands.
# Testing for sebum inhibition was carried out in the following manner. Male Syrian hamsters aged 9 to 10 weeks were introduced into the laboratory environment and acclimated for 2 weeks prior to use in the study. Each group consisted of 5 animals and run in parallel with vehicle and positive controls. Prior to administration, a sufficient quantity each compound was dissolved in 1 mL of the vehicle identified in Table III to achieve the final concentration reported in Table Ill.
# Animals were dosed topically twice daily, five days a week, for 4 weeks. Each dose consisted of 25 micro liters of vehicle control or drug. The dose was applied to the ventral surfaces of both the right and left ears. All animals were sacrificed approximately 18-24 hours after the final dose. The right ears were collected from each animal and used for sebum analysis.
# The ears were prepped for HPLC analysis in the following manner. One 8 mm distal biopsy punch was taken, just above the anatomical “V” mark in the ear to normalize the sample area. The punch was pulled apart. The ventral biopsy surface (the area where the topical dose was directly applied to the sebaceous glands) was retained for testing and the dorsal surface of the biopsy punch was discarded.
# Tissue samples were blown with N2 gas and stored at −80° C. under nitrogen until HPLC analysis. In addition to ear samples, an aliquot of each drug and vehicle (at least 250 ul) was also stored at −80° C. for inclusion in the HPLC analysis.
# HPLC analysis was carried out on an extract of the tissue sample. Tissue samples were contacted with 3 ml of solvent (a 4:1 admixture of 2,2,4-trimethylpentane and isopropyl alcohol). The mixture was shaken for 15 minutes and stored overnight at room temperature, protected from light. The next morning 1 milliliter of water was added to the sample and shaken for 15 minutes. The sample was then centrifuged at approximately 1500 rpm for 15 minutes. Two ml of the organic phase (top layer) was transferred to a glass vial, dried at 37° C., under nitrogen, for approximately 1 hour, and then lyophilized for approximately 48 hours. The samples were then removed from the lyophilizer and each vial was reconstituted with 600 μl of solvent A (trimethylpentane/tetrahydrofuran (99:1). The samples were then recapped and vortexed for 5 minutes.
# 200 μl of each sample was then transferred to a pre-labeled 200 μl HPLC vial with 200 μL glass inserts. The HPLC vials were placed in the autosampler tray for the Agilent 1100 series HPLC unit. The Agilent 1100 HPLC system consisted of a thermostated autosampler, a quarternary pump, a column heater, and an A/D interface module. All components were controlled by Agilent ChemStation software. A Waters Spherisorb S3W 4.6×100 mm analytical column was maintained at 30° C. by the Agilent column heater unit. The HPLC autosampler was programmed to maintain the sample temperature at 20 C throughout the run.
# 10 uL of each sample was injected in triplicate into the column. Two solvents were used for the solvent gradient. Solvent A was an admixture of trimethylpentane and tetrahydrofuran (99:1). Solvent B was ethylacetate. The gradient utilized is described in the table below: […]
# The Sedex 75 Evaporative Light Scattering Detector (ELSD) was operated at 45° C. with a gain of 5, and N2 pressure maintained at 3.1 bar. Analog signal obtained by the instrument was sent to the Agilent A/D interface module where it was converted to a digital output. The conversion was based on a 10000 mAU/volt set point and the data rate was set at 10 Hz (0.03 min). The resulting digital output was then feed into the Agilent ChemStation software for integration of the peak area.
# [2] = test system: male C3H/HeN mice (telogen to anagen conversion); type: in vivo
# Source text: While this model is a significant improvement over the telogen conversion assay as a model for human baldness, it suffers from a number of practical disadvantages. The macaques are expensive, relatively rare, labor intensive to maintain, and require long wash out periods between testing. […] Thus, the model relates to a modification of the existing telogen conversion assay. Male C3H/HeN mice approximately 7 weeks old are utilized. These animals are also uniformly in telogen, like their female counterparts. However, once shaven, the androgens inherently present in these male mice inhibit the conversion of the hair follicles to the anagen phase. An anti-androgen will block this androgenic effect and the follicles will convert to anagen, like their female counterparts.
# The compounds shown below in Table IV were submitted for further testing utilizing the modified telogen conversion assay, described above. The testing was carried out in the following manner.
# Male C3H/HeN mice, 6 to 7 weeks old (Charles River Laboratories, Raleigh, N.C.) were used for the study. Fur was clipped from the dorsal region of the mice prior to initiation of the study. Only mice with pink skin, a visual indication of the telogen phase, were selected for inclusion in the study.
# A second group of animals received only the vehicle to serve as a control. Treatments were applied twice daily for 4 weeks.
# The hair growth response was quantified by recording, for each animal, the day on which signs of hair growth first appeared over the treated area. The first sign of anagen was the darkening of skin color as melanocytes in the follicles started to synthesize melanin in preparation for the production of pigmented hairs. […] The day on which anagen was initiated in 50% of the test animals for both the treatment group and the vehicle group is reported below in Table IV.
# [3] = biological target: T1, androgen receptor in MDA-MB453-MMTV clone 54-19 cells (Homo sapiens, UniProt P10275); test: AR antagonist cell assay (MMTV-luciferase reporter); type: cell-based
# T1 sequence (P10275 1-920 Q868H): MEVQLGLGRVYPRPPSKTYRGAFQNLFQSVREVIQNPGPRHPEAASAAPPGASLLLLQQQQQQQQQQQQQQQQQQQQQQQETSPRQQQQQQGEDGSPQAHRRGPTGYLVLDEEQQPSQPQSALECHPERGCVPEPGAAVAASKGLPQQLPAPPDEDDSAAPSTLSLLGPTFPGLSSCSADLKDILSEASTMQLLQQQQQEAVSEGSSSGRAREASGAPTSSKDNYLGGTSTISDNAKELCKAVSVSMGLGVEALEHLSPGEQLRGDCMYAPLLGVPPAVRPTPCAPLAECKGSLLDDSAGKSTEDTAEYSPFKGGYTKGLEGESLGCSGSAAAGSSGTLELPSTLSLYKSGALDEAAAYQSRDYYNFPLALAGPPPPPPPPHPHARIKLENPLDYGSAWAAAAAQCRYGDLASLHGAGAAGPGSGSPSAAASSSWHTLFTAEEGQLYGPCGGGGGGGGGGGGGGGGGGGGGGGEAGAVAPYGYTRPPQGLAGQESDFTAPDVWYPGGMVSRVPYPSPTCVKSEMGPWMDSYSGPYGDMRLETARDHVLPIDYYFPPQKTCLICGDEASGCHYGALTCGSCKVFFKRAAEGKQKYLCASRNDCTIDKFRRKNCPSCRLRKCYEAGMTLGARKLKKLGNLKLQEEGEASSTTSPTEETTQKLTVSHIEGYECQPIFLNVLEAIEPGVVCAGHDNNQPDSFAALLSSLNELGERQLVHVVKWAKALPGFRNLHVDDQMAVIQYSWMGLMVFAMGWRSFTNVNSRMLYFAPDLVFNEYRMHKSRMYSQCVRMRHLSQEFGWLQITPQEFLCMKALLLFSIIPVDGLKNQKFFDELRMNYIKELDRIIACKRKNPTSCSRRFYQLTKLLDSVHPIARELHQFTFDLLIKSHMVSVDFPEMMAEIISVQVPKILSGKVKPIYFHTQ
# [4] = biological target: T2, hAR (human androgen receptor) (Homo sapiens, UniProt P10275); test: Competitive hAR binding assay with 3H-DHT tracer
# T2 construct: made in house; host or cells: baculovirus/Sf9 insect cells (crude extract)
# T2 sequence (P10275 1-920): T1 sequence (P10275 1-920 Q868H) with H868Q
# spinal BMD = settings: after 7 years of treatment; cited from earlier work
# [5] = 1 % w/v, Vehicle #2, topical twice daily for 4 weeks
# [6] = MDA-MB453-MMTV clone 54-19, inhibition of DHT induced luciferase, 17 hr; mean of multiple tests; read-out: AR Cell IC50
# [7] = baculovirus/Sf9 hAR extract, 1 nM 3H-DHT, one hour at 4° C, mean of multiple tests, read-out: AR Binding IC50
# [8] = read-out: AR Cell IC50; MDA-MB453-MMTV clone 54-19, inhibition of DHT induced luciferase, 17 hr; mean of multiple tests
compound,measurement,setting,value
"Cc1ccccc1Oc1ccc(C#N)cc1Cl [Example 4, 3-Chloro-4-o-tolyloxy-benzonitrile]",% CE Reduction,[1],76%
same,% WE Reduction,[1],90%
same,% WE & CE Reduction,[1],166%
same,Anagen-Trx (day on which anagen was initiated in 50% of the test animals),"[2]; 3 % w/v, Vehicle #2 (polyethylene glycol/ethanol 30/70), topical twice daily for 4 weeks",>35 days
"Cc1ccccc1Oc1ccc(C#N)c(Cl)c1 [Example 7, 2-Chloro-4-o-tolyloxy-benzonitrile]",% CE Reduction,[1],71%
same,% WE Reduction,[1],87%
same,% WE & CE Reduction,[1],158%
same,Anagen-Trx (day on which anagen was initiated in 50% of the test animals),[2]; [5],>60 days
same,Anagen-Trx (day on which anagen was initiated in 50% of the test animals),"[2]; 5 % w/v, Vehicle #2, topical twice daily for 4 weeks",35 days
"N#Cc1ccc(Oc2ccccc2F)c(Cl)c1 [Example 27, 3-Chloro-4-(2-fluoro-phenoxy)-benzonitrile]",IC50,[3]; [6],46 nM
same,Anagen-Trx (day on which anagen was initiated in 50% of the test animals),[2]; [5],>35 days
"COc1cc(F)ccc1Oc1ccc(C#N)cc1Cl [Example 29, 3-Chloro-4-(4-fluoro-2-methoxy-phenoxy)-benzonitrile]",IC50,[4]; [7],135 nM
same,IC50,[3]; [8],67 nM
same,Anagen-Trx (day on which anagen was initiated in 50% of the test animals),"[2]; mouse, in vivo",25 days
"COc1cccc(Oc2ccc(C#N)c(C(F)(F)F)c2)c1OC [Example 91, 4-(2,3-Dimethoxy-phenoxy)-2-trifluoromethyl-benzonitrile]",IC50,[4]; [7],272 nM
same,IC50,[3]; [8],28 nM
same,Anagen-Trx (day on which anagen was initiated in 50% of the test animals),"[2]; mouse, in vivo",20 days
"CC(O)c1cc(F)ccc1Oc1ccc(C#N)c(C(F)(F)F)c1 (stereo not drawn) [Example 119, 4-[4-Fluoro-2-(1-hydroxy-ethyl)-phenoxy]-2-trifluoromethyl-benzonitrile]",IC50,[4]; [7],279 nM
same,IC50,[3]; [6],458 nM
"CC(=O)c1cc(F)ccc1Oc1ccc(C#N)c(C(F)(F)F)c1 [Example 120, 4-(2-Acetyl-4-fluoro-phenoxy)-2-trifluoromethyl-benzonitrile]",IC50,[4]; [7],222 nM
same,IC50,[3]; [6],367 nM
"N#Cc1ccc(Oc2c(F)cccc2F)cc1C(F)(F)F [Example 121, 4-(2,6-Difluoro-phenoxy)-2-trifluoromethyl-benzonitrile]",IC50,[4],63 nM
same,IC50,[3]; [8],17 nM
"N#CCOc1ccccc1Oc1ccc(C#N)c(C(F)(F)F)c1 [Example 123, 4-(2-cyanomethoxy-phenoxy)-2-trifluoromethyl-benzonitrile]",IC50,[4]; [7],141 nM
same,IC50,[3]; [8],54 nM
"N#Cc1ccc(Oc2c(F)cccc2F)c(Cl)c1 [Example 124, 3-Chloro-4-(2,6-difluoro-phenoxy)-benzonitrile]",IC50,[4],45 nM
same,IC50,[3]; [8],60 nM
"COc1cc(C#N)ccc1Oc1ccccc1C [Example 125, 3-Methoxy-4-o-tolyloxy-benzonitrile]",IC50,[4]; [7],433 nM
same,IC50,[3]; [6],50 nM
NCCCC(O)(P(=O)(O)O)P(=O)(O)O [alendronate],increase in spinal BMD,spinal BMD,≤ 11%
